Laboratory results taken from PubChem BioAssay (NCI).
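In this assay, cells in 96-well plates receive the compound at five concentrations for 48 hours. Endpoints are linearly interpolated between the surrounding concentrations. GI50 marks 50% less growth. TGI marks complete inhibition of growth.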

Assays:
Experiment in all cases: NCI tumour cell line growth inhibition, 48 h
[1] = test system: SF-295 CNS
[2] = test system: UO-31 renal
[3] = test system: COLO 205 colon
[4] = test system: SF-268 CNS
[5] = test system: SNB-75 CNS
[6] = test system: NCI-H522 lung
[7] = test system: K-562 leukemia
[8] = test system: HCT-15 colon
[9] = test system: MDA-MB-435
[10] = test system: UACC-62 melanoma
[11] = test system: T-47D breast
[12] = test system: NCI-H226 lung
[13] = test system: OVCAR-5 ovarian
[14] = test system: SF-539 CNS
[15] = test system: 786-0 renal
[16] = test system: HT29 colon
[17] = test system: MALME-3M melanoma
[18] = test system: SNB-19 CNS
[19] = test system: SR leukemia
[20] = test system: OVCAR-3 ovarian
[21] = test system: CCRF-CEM leukemia
[22] = test system: ACHN renal
[23] = test system: PC-3 prostate
[24] = test system: NCI-H23 lung
[25] = test system: M14 melanoma
[26] = test system: BT-549 breast
[27] = test system: RPMI-8226 leukemia
[28] = test system: RXF 393 renal
[29] = test system: NCI-H460 lung
[30] = test system: UACC-257 melanoma
[31] = test system: MDA-MB-231 breast
[32] = test system: HL-60(TB) leukemia
[33] = test system: MCF7 breast
[34] = test system: A498 renal
[35] = test system: CAKI-1 renal
[36] = test system: SN12C renal
[37] = test system: HCT-116 colon
[38] = test system: HOP-92 NSCLC
[39] = test system: EKVX NSCLC
[40] = test system: LOX IMVI melanoma
[41] = test system: DU-145 prostate
[42] = test system: SK-MEL-28 melanoma
[43] = test system: SK-MEL-5 melanoma
[44] = test system: IGROV1 ovarian
[45] = test system: OVCAR-4 ovarian
[46] = test system: SK-OV-3 ovarian
[47] = test system: NCI/ADR-RES ovarian
[48] = test system: MOLT-4 leukemia
[49] = test system: HCC-2998 colon
[50] = test system: U251 CNS
[51] = test system: OVCAR-8 ovarian
[52] = test system: KM12 colon
[53] = test system: SK-MEL-2 melanoma
[54] = test system: HS 578T breast
[55] = test system: A549 NSCLC
[56] = test system: SW-620 colon
[57] = test system: HOP-62 NSCLC
[58] = test system: TK-10 renal

For `O=C(NC1=CC(=O)c2ccccc2C1=O)c1ccccc1`, the GI50 [1] was 2000 nM, the TGI [1] was 7730 nM and the GI50 [2] was 481 nM. For the same compound, the TGI [2] was 2180 nM, the GI50 [3] was 1800 nM and the TGI [3] was 3310 nM. The GI50 [4] was 1210 nM, the TGI [4] was 13800 nM and the GI50 [5] was 373 nM. The TGI [5] was 8100 nM, the GI50 [6] was 702 nM and the TGI [6] was 2760 nM. For the same compound, the GI50 [7] was 694 nM, the TGI [7] was > 100000 nM and the GI50 [8] was 549 nM. It also gave a TGI [8] of 5600 nM, a GI50 [9] of 940 nM and a TGI [9] of 2290 nM. For the same compound, the GI50 [10] was 240 nM, the TGI [10] was 799 nM and the GI50 [11] was 777 nM. The TGI [11] was 2680 nM, the GI50 [12] was 2670 nM and the TGI [12] was 15700 nM. It also gave a GI50 [13] of 1180 nM, a TGI [13] of 15500 nM and a GI50 [14] of 284 nM. The TGI [14] was 913 nM, the GI50 [15] was 3010 nM and the TGI [15] was 17200 nM. For the same compound, the GI50 [16] was 2330 nM, the TGI [16] was 4900 nM and the GI50 [17] was 1700 nM. The TGI [17] was 3270 nM, the GI50 [18] was 2900 nM and the TGI [18] was 16400 nM. The GI50 [19] was 709 nM, the TGI [19] was 4850 nM and the GI50 [20] was 685 nM. It also gave a TGI [20] of 2010 nM, a GI50 [21] of 872 nM and a GI50 [22] of 1010 nM. The TGI [22] was 2270 nM, the GI50 [23] was 421 nM and the TGI [23] was 2440 nM. For the same compound, the GI50 [24] was 1120 nM, the TGI [24] was 9500 nM and the GI50 [25] was 874 nM. It also gave a TGI [25] of 4400 nM, a GI50 [26] of 706 nM and a TGI [26] of 14900 nM. For the same compound, the GI50 [27] was 355 nM, the TGI [27] was > 100000 nM and the GI50 [28] was 1400 nM. It also gave a TGI [28] of 3120 nM, a GI50 [29] of 643 nM and a TGI [29] of 13100 nM. The GI50 [30] was 1220 nM, the TGI [30] was 2570 nM and the GI50 [31] was 421 nM. The TGI [31] was 1760 nM, the GI50 [32] was 639 nM and the TGI [32] was 2530 nM. The GI50 [33] was 1050 nM, the TGI [33] was 2760 nM and the GI50 [34] was 4460 nM. For the same compound, the TGI [34] was 17500 nM, the GI50 [35] was 1740 nM and the TGI [35] was 3540 nM. For the same compound, the GI50 [36] was 1490 nM, the TGI [36] was 6010 nM and the GI50 [37] was 409 nM. It also gave a TGI [37] of 1600 nM, a GI50 [38] of 572 nM and a TGI [38] of 2600 nM. The GI50 [39] was 729 nM, the TGI [39] was 7630 nM and the GI50 [40] was 1080 nM. The TGI [40] was 2630 nM, the GI50 [41] was 1710 nM and the TGI [41] was 3460 nM. The GI50 [42] was 841 nM, the TGI [42] was 15300 nM and the GI50 [43] was 399 nM. For the same compound, the TGI [43] was 1480 nM, the GI50 [44] was 1260 nM and the TGI [44] was 2850 nM. The GI50 [45] was 1040 nM, the TGI [45] was 2260 nM and the GI50 [46] was 3060 nM. It also gave a TGI [46] of 14300 nM, a GI50 [47] of 1260 nM and a TGI [47] of 14900 nM. For the same compound, the GI50 [48] was 2040 nM, the TGI [48] was 6220 nM and the GI50 [49] was 1270 nM. It also gave a TGI [49] of 14300 nM, a GI50 [50] of 420 nM and a TGI [50] of 11600 nM. The GI50 [51] was 1670 nM, the TGI [51] was 5630 nM and the GI50 [52] was 353 nM. The TGI [52] was 11500 nM, the GI50 [53] was 534 nM and the TGI [53] was 15700 nM. It also gave a GI50 [54] of 1090 nM, a TGI [54] of 71900 nM and a GI50 [55] of 2910 nM. It also gave a TGI [55] of 16400 nM, a GI50 [56] of 1150 nM and a TGI [56] of 2820 nM. For the same compound, the GI50 [57] was 2760 nM, the TGI [57] was 16000 nM and the GI50 [58] was 2710 nM. For the same compound, the TGI [58] was 5380 nM.
